# Reference: patent publication US20120282187A1 (BOEHRINGER INGELHEIM INTERNATIONAL GMBH, priority 2008, published 2012)
# Like-named read-outs stand apart in the source and are kept apart here. Marks after values point to notes of the source that are not given here.
# Experiments:
# [1] = test system: patients with atrial fibrillation
# Protocol: The PETRO-Ex study was conducted in 52 centers in the United States, Denmark, The Netherlands, and Sweden.
# PETRO-Ex began while the PETRO study was ongoing and investigators were initially kept blinded to patient treatment group until PETRO was completed. Unblinding investigators to patient treatment was possible thereafter.
# Data were summarized descriptively; no hypothesis was to be tested. Events were analyzed on the basis of the treatment at onset. Incidences were reported as of patients with events as well as normalized to 100 patient-years on the respective treatment.
# Patients who were down titrated to 50 mg q.d. based on a glomerular filtration rate≦50 mL/min during PETRO were excluded from the long-term trial; patients down-titrated in other dose levels remained on the q.d. treatment at that dose.
# The total exposure reflects both trials, PETRO and PETRO-Ex, together.
# [2] = Clinical pharmacokinetics and pharmacodynamics of dabigatran etexilate; format: in vivo
# Source text: Ezekowitz M D, et al., Dabigatran with or without concomitant aspirin compared with warfarin alone in patients with nonvalvular atrial fibrillation (PETRO study), Am. […] The PETRO study is described below.
# As noted above, management of warfarin therapy is complex, and failure to adequately monitor patients is associated with risk. […] It also interacts with many common foods, drugs and alcohol which alter its therapeutic effect, putting patients at risk of either a bleeding or thrombotic event. Therefore, warfarin therapy requires careful individualized dosing and frequent monitoring. The significant limitations of VKAs have created a need for an oral anticoagulant with a rapid onset of action, minimal drug interactions, and a predictable anticoagulation effect that needs no monitoring.
# Peak levels are seen within 2-3 hours of oral administration. […] Steady-state is reached within 2-3 days with a twice daily regimen. […] The remainder undergoes conjugation with glucuronic acid to form acylglucuronides which are excreted primarily in the bile.
# [3] = PETRO-Ex, including bleeding and thrombotic events
structure (smiles),measurement,setting,value
"CCCCCCOC(=O)NC(=N)c1ccc(NCc2nc3cc(C(=O)N(CCC(=O)OCC)c4ccccn4)ccc3n2C)cc1 [Dabigatran etexilate, 1-methyl-2-[N-[4-(N-n-hexyloxycarbonylamidino)phenyl]aminomethyl]benzimidazol-5-ylcarboxylic acid-N-(2-pyridyl)-N-(2-ethoxycarbonylethyl)amides]","MI, number",[1]; 300 mg b.i.d.,0
same,"Major Bleeds with aspirin, number",[1]; 300 mg b.i.d.,6
same,"Major Bleeds with aspirin, rate",[1]; 300 mg b.i.d.,32.7 per 100 patient-years
same,"Major Bleeds without aspirin, number",[1]; 300 mg b.i.d.,4
same,"Major Bleeds without aspirin, rate",[1]; 300 mg b.i.d.,6.3 per 100 patient-years
same,"Major Bleeds, number",[1]; 300 mg b.i.d.,10
same,"Major Bleeds, rate",[1]; 300 mg b.i.d.,12.2 per 100 patient-years
same,Major bleeding events,[1]; 300 mg b.i.d.,12.2 % per year
same,"Other MACE, number",[1]; 300 mg b.i.d.,1
same,"Stroke and Systemic Thromboembolism, number",[1]; 300 mg b.i.d.,1
same,"TIA, number",[1]; 300 mg b.i.d.,0
same,bleeding events,[1]; 300 mg b.i.d.,more than 12 per 100 years
same,"ALT or AST >2xULN, number",[1]; 300 mg q.d.,3
same,"ALT or AST >2xULN, rate",[1]; 300 mg q.d.,1.5 per 100 patient-years
same,"ALT or AST >3xULN and Bili >2xULN within 30 days, number",[1]; 300 mg q.d.,1
same,"ALT or AST >3xULN and Bili >2xULN within 30 days, rate",[1]; 300 mg q.d.,0.5 per 100 patient-years
same,"ALT or AST >3xULN, number",[1]; 300 mg q.d.,3
same,"ALT or AST >3xULN, rate",[1]; 300 mg q.d.,1.5 per 100 patient-years
same,"ALT or AST >5xULN, number",[1]; 300 mg q.d.,3
same,"ALT or AST >5xULN, rate",[1]; 300 mg q.d.,1.5 per 100 patient-years
same,"Adverse Events leading to premature discontinuation, number",[1]; 300 mg q.d.,19
same,"Adverse Events leading to premature discontinuation, rate",[1]; 300 mg q.d.,9.6 per 100 patient-years
same,"MI, number",[1]; 300 mg q.d.,1
same,"Major Bleeds with aspirin, number",[1]; 300 mg q.d.,2
same,"Major Bleeds with aspirin, rate",[1]; 300 mg q.d.,3.6 per 100 patient-years
same,"Major Bleeds without aspirin, number",[1]; 300 mg q.d.,3
same,"Major Bleeds without aspirin, rate",[1]; 300 mg q.d.,2.1 per 100 patient-years
same,"Major Bleeds, number",[1]; 300 mg q.d.,5
same,"Major Bleeds, rate",[1]; 300 mg q.d.,2.5 per 100 patient-years
same,Major bleeding events,[1]; 300 mg q.d.,2.5 % per year
same,"Other MACE, number",[1]; 300 mg q.d.,1
same,"Stroke and Systemic Thromboembolism, number",[1]; 300 mg q.d.,5
same,"TIA, number",[1]; 300 mg q.d.,0
same,"fatal major bleeds, number",[1]; 300 mg q.d.,1
same,tolerability,[1]; 300 mg twice daily,not tolerable
same,Serious adverse events: cardiac disorders,[1]; PETRO-Ex,22%
same,"Serious adverse events: cardiac disorders, pts",[1]; PETRO-Ex,80
same,Serious adverse events: gastrointestinal disorders,[1]; PETRO-Ex,7.8%
same,"Serious adverse events: gastrointestinal disorders, pts",[1]; PETRO-Ex,28
same,Serious adverse events: infections,[1]; PETRO-Ex,9.4%
same,"Serious adverse events: infections, pts",[1]; PETRO-Ex,34
same,Serious adverse events: nervous system disorders,[1]; PETRO-Ex,9.1%
same,"Serious adverse events: nervous system disorders, pts",[1]; PETRO-Ex,33
same,Major bleeding events (per 100 patient years),"[1]; PETRO-Ex, 150 mg b.i.d., without concomitant aspirin",3.2%*
same,LFT abnormalities >3 x-ULN (per 100 patient years),"[1]; PETRO-Ex, All doses",1.7%
same,Serious adverse events,[1]; [3],51%
same,"Serious adverse events, patients",[1]; [3],184
same,"ALT or AST >2xULN, number",[1]; Total (all doses),30
same,"ALT or AST >2xULN, rate",[1]; Total (all doses),2.9 per 100 patient-years
same,"ALT or AST >3xULN and Bili >2xULN within 30 days, number",[1]; Total (all doses),4
same,"ALT or AST >3xULN and Bili >2xULN within 30 days, rate",[1]; Total (all doses),0.4 per 100 patient-years
same,"ALT or AST >3xULN, number",[1]; Total (all doses),18
same,"ALT or AST >3xULN, rate",[1]; Total (all doses),1.7 per 100 patient-years
same,"ALT or AST >5xULN, number",[1]; Total (all doses),11
same,"ALT or AST >5xULN, rate",[1]; Total (all doses),1.1 per 100 patient-years
same,"Adverse Events leading to premature discontinuation, number",[1]; Total (all doses),120
same,"Adverse Events leading to premature discontinuation, rate",[1]; Total (all doses),11.5 per 100 patient-years
same,"MI, number",[1]; Total (all doses),7
same,"Major Bleeds with aspirin, number",[1]; Total (all doses),19
same,"Major Bleeds with aspirin, rate",[1]; Total (all doses),8.5 per 100 patient-years
same,"Major Bleeds without aspirin, number",[1]; Total (all doses),26
same,"Major Bleeds without aspirin, rate",[1]; Total (all doses),3.2 per 100 patient-years
same,"Major Bleeds, number",[1]; Total (all doses),44
same,"Major Bleeds, rate",[1]; Total (all doses),4.2 per 100 patient-years
same,"Other MACE, number",[1]; Total (all doses),11
same,"Stroke and Systemic Thromboembolism, number",[1]; Total (all doses),20
same,"TIA, number",[1]; Total (all doses),1
same,"ALT or AST >3xULN and Bili >2xULN within 30 days, number","[1]; Total (all doses), listed as dabigatran etexilate",four
same,concomitant bilirubin elevation >2xULN within 30 days of transaminase elevations >3xULN,[1]; all doses,0.4 % per year
same,"elevated liver transaminases, AST or ALT >3xULN",[1]; all doses,1.7 % per year
same,"fatal intracranial bleeds, number",[1]; all doses,Three
same,"fatal major bleeds, number",[1]; all doses,Five
same,transaminases (AST or ALT) >5xULN,[1]; all doses,1.1 % per year
same,bleeding event risk ratio,[1]; concomitant aspirin vs. none,2.70
same,major bleed rate,[1]; doses ≦150 mg/day (150 mg q.d. combined with 50 mg b.i.d.),3.7 % per year
same,bleeding event rate,[1]; on concomitant aspirin,8.5 % per year
same,bleeding event rate,[1]; without concomitant aspirin,3.2 % per year
same,"effect of oral strong P-gp inhibitors verapamil, quinidine or amiodarone on dabigatran plasma concentrations",[2]; concomitant with dabigatran etexilate,elevate dabigatran plasma concentrations
same,food interactions,[2]; in vivo,no food interactions
same,onset of anticoagulant effect,[2]; time after dosing,one
